Like-named read-outs stand apart in the source and are kept apart here.
How the values were obtained:
[1] = Conversion rate (CR) assay with fluorescamine; type: physicochemical; set-up: key to CR: % = 100−100×filtrate/original fluorescence intensity; conditions: conversion rate, fluorescamine assay
Method: For ATR FT–IR spectroscopy measurements, 200 µL of the respective 1 mg/mL PNF solution was lyophilized and the resulting powder used for measurement. All spectra were recorded on a Bruker Tensor 27 spectrometer with a diamond crystal as ATR element (PIKE MiracleTM, spectral resolution 2 cm^-1). Every sample was measured with 64 scans. Data were analyzed with OriginLab software and calculation of β–sheet content was conducted according to a previous report. TEM. For TEM measurements 5 µL of PNF fibrils (1 mg/mL) were placed on copper grids coated with carbon and formvar layer (300 mesh, Plano GmbH). After 10 min incubation time, the grids were staining with 4% uranyl acetate solution for 2.5 min and washed with water. Measurements were performed on a Jeol 1400 electron microscope with 120 kV acceleration voltage. CR Assay. For the determination of the amount of peptide monomer converting into nanostructures the amine reactive dye fluorescamine was used analogous to a previous reported protocol. Briefly, 100 µL of the preformed PNF solution was centrifuged in a Vivaspin 500 tube (3 kDa MWCO) to separate fibers from free peptide monomer (16200 x g, 4 °C, 45 min). The filtrate and 100 μL of the non-filtered PNF sample were lyophilized and dissolved in 30 μL DMSO. 10 μL of the filtrate and non-filtered DMSO samples were submitted in a black UV Star® 384 microliter well–plates (Greiner bio–one) and 3 μL of the fluorescamine solution (10 mg/mL, DMSO) was added to measure the fluorescence enhancement. After 20 min of incubation at RT, fluorescence was recorded on an Infinite® M1000 PRO microplate reader (Tecan) at λem = 470 nm upon excitation at λex = 365 nm with 10 nm bandwidths and multiple reads per well (3×3). Measurements were repeated in triplicates and averaged with standard deviation. All values were calculated as n-fold fluorescence enhancement (DMSO only as a reference was set to 1). The conversion rate CR was defined according to the equation Eq. (3).3 CR=100−100×fluorescenceintensityfiltrate/fluorescenceintensityoriginal[%]

[2] = test system: HIV-1 infection of TZM-bl cells; test: HIV-1 infectivity enhancement assay, β-galactosidase luminescence; type: cell-based; conditions: for Rel-EFC / Log10 Infection Rel EFC: 1.3 µM peptide; for Rel-EFC: infection relative to EF-C (QCKIKQIINMWQ = 1); for Log10 Infection Rel EFC: log10 of infection relative to EF-C; for Log Infectivity: Log10 infection relative to EF-C, asymmetric std dev errors; for Log10 Infection Rel EF-C: HIV-1 infection of TZM-bl cells; for Log10 of Rel to EFC (Feb2021): Log10 of infection relative to EF-C; for Abs. Inf.: β-galactosidase luminescence
[3] = type: physicochemical; conditions: for ThT Cat. / ThT-Fluorescence (categorical): ThT-active if fluorescence at least twice the control
Procedure, shortened: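 Fibrils (1 mg/mL solution) were mixed with 50 µM ThT in PBS for 15 min at RT, and fluorescence was read at λex 440/λem 488 nm against a PBS blank, as a triplicate mean ± SD. Zeta potential came from electrophoretic mobility (Smoluchowski) after 1 d aggregation at 1 mg/mL in PBS pH 7.4, diluted into 1 mM KCl.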

[4] = Fig. S7 panel A (plotted against β-sheet content), TZM-bl cells
[5] = Log10 of infection rate relative to EF-C, Figure 3A source data
[6] = infection rate relative to EF-C, log10, data of Figure 2D
[7] = infection rate relative to EF-C, log10, source data of Figure 2C
[8] = ThT fluorescence category, 1 if Rel. ThT >2
[9] = second listing, peptides with TEM 2cat 0
[10] = absolute HIV-1 infection signal, TZM-bl cells

Substance	Rel-EFC [2]	Log10 Infection Rel EFC [2]	Log Infectivity [2, 4]	Log10 Infection Rel EF-C [2, 5]	Log10 Infection Rel EF-C [2, 6]	Log10 Infection Rel EF-C [2, 7]	Log10 of Rel to EFC (Feb2021) ([2]; all peptides of FigS16)	Tht category (> 2 to blank = +) ([3]; Fig S10 panel D)	ThT Cat, ([3]; ThT category, 1 if Rel. ThT >2)	ThT Cat. [3, 8]	ThT Cat. / ThT-Fluorescence (categorical) [3]	ThT Cat. ([3]; ThT category, 1 if Rel. ThT >2)	Tht category (> 2 to blank = +) ([3]; FigS12 panel A)	ThT Cat, ([3]; FigS12 panel B)	other results
CEFEFQFNMWQ	0,14	-0,85	-0.8509	-0.85	-0.8509	-0.8509	-0.85	1 (ThT. Cat is 1, if Rel. ThT >2)	1 (ThT. Cat is 1, if Rel. ThT >2)	1 (ThT. Cat is 1, if Rel. ThT >2)	1 (ThT. Cat is 1, if Rel. ThT >2)				CR / % ([1]; Fig. S7 panel B): 98.6%; CR [1]: 98.63; Log Infectivity ([2]; Fig. S7 panel B (plotted against CR), rounded to two decimals, TZM-bl cells): -0.85; ThT Cat. ([3]; Fig S10 panel E): 1 (ThT. Cat is 1, if Rel. ThT >2)
KIKIQINMWWQ	3,21	0,51	0.5063	0.51	0.5063	0.5063	0.51	0 (ThT-inactive (N-Fold <2))	0 (ThT-inactive (N-Fold <2))		0 (ThT-inactive (N-Fold <2))	0 (ThT-inactive (N-Fold <2))			Log10 of Rel to EFC (Feb2021) [2, 9]: 0.51; Abs. Inf. [2, 10]: 17976.66667
KIKIQINMWWWQ	2,75	0,44	0.4391	0.44	0.4391	0.4391	0.44	0 (ThT-inactive (N-Fold <2))	0 (ThT-inactive (N-Fold <2))		0 (ThT-inactive (N-Fold <2))	0 (ThT-inactive (N-Fold <2))			Log10 of Rel to EFC (Feb2021) [2, 9]: 0.44; Abs. Inf. [2, 10]: 15400
KIKIQIRGD	0,02	-1,68	-1.678	-1.68	-1.678	-1.678		1 (ThT. Cat is 1, if Rel. ThT >2)	1 (ThT. Cat is 1, if Rel. ThT >2)	1 (ThT. Cat is 1, if Rel. ThT >2)	1 (ThT. Cat is 1, if Rel. ThT >2)		1 (ThT. Cat is 1, if Rel. ThT >2)	1 (ThT. Cat is 1, if Rel. ThT >2)	
KIKIQIW	0,14	-0,85	-0.8533	-0.85	-0.8533	-0.8533	-0.85	1 (ThT. Cat is 1, if Rel. ThT >2)	1 (ThT. Cat is 1, if Rel. ThT >2)		1 (ThT. Cat is 1, if Rel. ThT >2)	1 (ThT. Cat is 1, if Rel. ThT >2)			Abs. Inf. [2, 10]: 4280
KLKLKLQL	0,1	-1,01	-1.009	-1.01	-1.009	-1.009		0 (ThT-inactive (N-Fold <2))	0 (ThT-inactive (N-Fold <2))	0 (ThT-inactive (N-Fold <2))	0 (ThT-inactive (N-Fold <2))		0 (ThT-inactive (N-Fold <2))	0 (ThT-inactive (N-Fold <2))	
KLKLQLL	0,01	-2,16	-2.156	-2.16	-2.156	-2.156		0 (ThT-inactive (N-Fold <2))	0 (ThT-inactive (N-Fold <2))	0 (ThT-inactive (N-Fold <2))	0 (ThT-inactive (N-Fold <2))		0 (ThT-inactive (N-Fold <2))	0 (ThT-inactive (N-Fold <2))	
KVKVQVV	0,01	-2,04	-2.04	-2.04	-2.04	-2.04		0 (ThT-inactive (N-Fold <2))	0 (ThT-inactive (N-Fold <2))	0 (ThT-inactive (N-Fold <2))	0 (ThT-inactive (N-Fold <2))		0 (ThT-inactive (N-Fold <2))	0 (ThT-inactive (N-Fold <2))	
KVKVQVVV	0,04	-1,46	-1.455	-1.46	-1.455	-1.455		0 (ThT-inactive (N-Fold <2))	0 (ThT-inactive (N-Fold <2))	0 (ThT-inactive (N-Fold <2))	0 (ThT-inactive (N-Fold <2))		0 (ThT-inactive (N-Fold <2))	0 (ThT-inactive (N-Fold <2))	
MKIKIQINM	0,27	-0,56	-0.5635	-0.56	-0.5635	-0.5635	-0.56	0 (ThT-inactive (N-Fold <2))	0 (ThT-inactive (N-Fold <2))	0 (ThT-inactive (N-Fold <2))	0 (ThT-inactive (N-Fold <2))				
MKIKIQINMWQ	0,42	-0,38	-0.378	-0.38	-0.378	-0.378	-0.38	1 (ThT. Cat is 1, if Rel. ThT >2)	1 (ThT. Cat is 1, if Rel. ThT >2)	1 (ThT. Cat is 1, if Rel. ThT >2)	1 (ThT. Cat is 1, if Rel. ThT >2)				
QCKFKQFF	0,01	-1,91	-1.907	-1.91	-1.907	-1.907		1 (ThT. Cat is 1, if Rel. ThT >2)	1 (ThT. Cat is 1, if Rel. ThT >2)		1 (ThT. Cat is 1, if Rel. ThT >2)	1 (ThT. Cat is 1, if Rel. ThT >2)	1 (ThT. Cat is 1, if Rel. ThT >2)	1 (ThT. Cat is 1, if Rel. ThT >2)	Abs. Inf. ([2]; absolute infection signal, HIV-1 on TZM-bl cells): 170; Log10 Inf. rel. to EF-C ([2]; log10 of HIV-1 infection of TZM-bl cells relative to EF-C (EF-C = 0)): -1.907
RGDCKIKIQINM	0,24	-0,63	-0.6272	-0.63	-0.6272	-0.6272	-0.63	0 (ThT-inactive (N-Fold <2))	0 (ThT-inactive (N-Fold <2))	0 (ThT-inactive (N-Fold <2))	0 (ThT-inactive (N-Fold <2))				
